This note sets out measurements from ChEMBL document CHEMBL2177046, “New aminoimidazoles as β-secretase (BACE-1) inhibitors showing amyloid-β (Aβ) lowering in brain” (J Med Chem, 2012).

Structures are written as SMILES.

Series [1] can be described thus: physchem.
Series [2] in a line: in vitro. To be noted: human, Caco-2.
Series [3] can be described thus: Ratio of free drug concentration in brain to free drug concentration in plasma in C57BL/6 mouse at 30 umol/kg, iv at […]. The series is classed as ADME, organism-based. As to conditions: brain and plasma, read-out: K(p,uu,brain).
In series [4] the test system is Brain. Description: Free drug concentration in C57BL/6 mouse brain at 30 umol/kg, iv at […]. As to conditions: in vivo. Type of series: ADME, organism-based.
Series [5] can be described thus: Drug uptake in C57BL/6 mouse brain at 30 umol/kg, iv at […]. Type of series: ADME, organism-based. As to conditions: read-out: Drug uptake.
Series [6] deals with Plasma. Description: Free plasma concentration in C57BL/6 mouse at 30 umol/kg, iv at […]. As to conditions: in vivo. The series is classed as ADME, organism-based.
Series [7] can be described thus: Dissociation constant, pKa of the compound by pressure-assisted capillary electrophoretic method. Type of series: physicochemical.
Series [8] is described as follows: Plasma concentration in C57BL/6 mouse at 30 umol/kg, iv at […]. Type of series: ADME, organism-based.
The nature of series [9]: Ratio of free drug concentration in brain to free drug concentration in plasma in C57BL/6 mouse at 100 umol/kg, po at […]. As to conditions: brain and plasma, read-out: K(p,uu,brain). The series is classed as ADME, organism-based.
Series [10] relates to Brain. Description: Free drug concentration in C57BL/6 mouse brain at 100 umol/kg, po at […]. Type of series: ADME, organism-based. As to conditions: in vivo.
The nature of series [11]: Drug uptake in C57BL/6 mouse brain at 100 umol/kg, po at […]. The series is classed as ADME, organism-based. To be noted: read-out: Drug uptake.
The subject of series [12] is Plasma. Description: Free plasma concentration in C57BL/6 mouse at 100 umol/kg, po at […]. Type of series: ADME, organism-based. As to conditions: in vivo.
Series [13] can be described thus: Plasma concentration in C57BL/6 mouse at 100 umol/kg, po at […]. The series is classed as ADME, organism-based.
A short description of series [14]: Ratio of free drug concentration in brain to free drug concentration in plasma in guinea pig. The series is classed as ADME, Cavia porcellus. As to conditions: brain and plasma, read-out: K(p,uu,brain).
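For logD in this document: lipophilicity determined by reversed-phase HPLC.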

A word on the logD: it is lipophilicity at a set pH, counting ionised and neutral species. Low values mean lower lipophilicity, high ones higher lipophilicity. The Papp A→B is the apparent permeability from the apical to the basolateral side of a cell layer. `COc1c(C)cc([C@]2(c3cccc(-c4cncnc4)c3)N=C(C)C(N)=N2)cc1C`: the logD in [1] was 1.8. In series [2], this compound showed a Papp A→B at 10 µM of 21 ×10⁻⁶ cm/s.
Usually pKa stands for the pH at which an ionisable group is half protonated. For `CC#Cc1cncc(-c2cccc(C3(C4CC4)N=C(C)C(N)=N3)c2)c1` (configuration not stated), the Kp uu at […] in [3] was 0.07. In addition, the “Drug uptake(free)” value in series [4] is 21 nmol/L. In addition, the values for the concentration at […] in series [5] and in series [8] were 980 nM and 3700 nM, respectively. The “Cp(f)” value in [6] is 310 nM. This compound showed a pKa in series [7] of 5.8. Also, the logD in series [1] is 2.3. Besides, the Papp A→B at 10 µM in [2] came to 27 ×10⁻⁶ cm/s.
Compound `COc1c(C)cc(C2(c3cccc(-c4cncnc4)c3)N=C(C)C(N)=N2)cc1C` (configuration not stated) yielded a pKa in [7] of 5.3. This compound registered a logD in series [1] of 1.9. Further, the Papp A→B at 10 µM in series [2] worked out at 28 ×10⁻⁶ cm/s.
On to `COc1cccc(-c2cccc(C3(c4ccncc4)N=C(C)C(N)=N3)c2)c1` (configuration not stated), for which the Papp A→B at 10 µM in series [2] amounted to 40 ×10⁻⁶ cm/s.
Take `COc1cccc(-c2cccc(C3(C4CCN(C(C)=O)CC4)N=C(C)C(N)=N3)c2)c1` (configuration not stated): the pKa in series [7] amounted to 5.7.
As for `COc1ccc(C2(c3cccc(-c4cncnc4)c3)N=C(C)C(N)=N2)cc1C` (configuration not stated), in [1], the pH-dependent lipophilicity (logD) came out at 1.7. The Papp A→B at 10 µM in [2] was determined as 19 ×10⁻⁶ cm/s.
The matching figures for `CC#Cc1ccnc(-c2cc(C3(C4CC4)N=C(C)C(N)=N3)ccc2O)c1` (configuration not stated): 2.9 and 19 ×10⁻⁶ cm/s.
On to `CC1=N[C@@](Cc2ccccc2)(c2cccc(-c3cncnc3)c2)N=C1N`, for which the pKa in series [7] turned out to be 6. This compound yielded a logD in series [1] of 1.2. This compound came in with a Papp A→B at 10 µM in series [2] of 31 ×10⁻⁶ cm/s.
As for `CC1=NC(c2ccccc2)(c2cccc(-c3cccnc3)c2)N=C1N` (configuration not stated), in [1], the log distribution coefficient (logD) was determined as 1.8.
Compound `CC#Cc1cncc(-c2cccc(C3(c4cc(C)c(OC)c(C)c4)N=C(C)C(N)=N3)c2)c1` (configuration not stated) came in with a logD in [1] of 3.7. Besides, the Papp A→B at 10 µM in series [2] was found to be 12 ×10⁻⁶ cm/s.
Consider `COc1ccc(C2(c3cccc(-c4cncnc4)c3)N=C(N)C(C(C)C)=N2)cc1` (configuration not stated), for which, in series [7], the pKa is 5.3. This compound also came in with a pH-dependent lipophilicity (logD) in series [1] of 2.4. In [2], this compound yielded a Papp A→B at 10 µM of 30 ×10⁻⁶ cm/s.
As to `COc1ccc(C2(c3cccc(-c4cncnc4)c3)N=C(C)C(N)=N2)cc1` (configuration not stated), the pKa in series [7] was 5.2. This compound also registered a logD in series [1] of 1.1. This compound had a Papp A→B at 10 µM in [2] of 21 ×10⁻⁶ cm/s.
`CC1=NC(c2cccc(-c3cccnc3)c2)(C2CCCCC2)N=C1N` (configuration not stated) displayed a pKa in series [7] of 6.2. In addition, the logD in series [1] came out at 2.6. In series [2], this compound returned a Papp A→B at 10 µM of 41 ×10⁻⁶ cm/s.
In the case of `CC#Cc1cncc(-c2cc(C3(C4CC4)N=C(C)C(N)=N3)ccc2O)c1` (configuration not stated), the pKa in series [7] was found to be 5.9. Besides, in [1], the logD is 1.2. Further, the Papp A→B at 10 µM in series [2] was 2 ×10⁻⁶ cm/s.
Turning to `COc1ccc(C2(c3cccc(-c4cccnc4)c3)N=C(C)C(N)=N2)cc1` (configuration not stated), the Kp uu at […] in series [3] came out at 0.08. Further, the “Drug uptake(free)” value in [4] is reported as 54 nmol/L. Moreover, the results for the concentration at […] in series [5] and in series [8] were 710 nM and 11500 nM, respectively. For the same compound, the “Cp(f)” value in series [6] turned out to be 720 nM. In [7], this compound returned a pKa of 5.7. The logD in [1] stood at 1.7. This compound also had a Papp A→B at 10 µM in series [2] of 28 ×10⁻⁶ cm/s.
`CC(C)C1=NC(C)(c2cccc(-c3cccnc3)c2)N=C1N` (configuration not stated) showed a pKa in [7] of 5.9. The compound also returned a pH-dependent lipophilicity (logD) in series [1] of 1.1. Moreover, in [2], the Papp A→B at 10 µM was 38 ×10⁻⁶ cm/s.
`COc1cccc(-c2cccc(C3(C)N=C(C)C(N)=N3)c2)c1` (configuration not stated) yielded a pKa in series [7] of 6.5. The same compound returned a logD in [1] of 2.2. The compound further registered a Papp A→B at 10 µM in [2] of 34 ×10⁻⁶ cm/s.
In the case of `CC(C)C1=NC(c2ccccc2)(c2cccc(-c3cncnc3)c2)N=C1N` (configuration not stated), the pKa in [7] is 5.2. Also, in series [1], the logD amounted to 2.4. Moreover, the Papp A→B at 10 µM in series [2] was determined as 30 ×10⁻⁶ cm/s.
For the compound `CC1=NC(c2ccc(F)cc2)(c2cccc(-c3cccnc3)c2)N=C1N` (configuration not stated), the pKa in series [7] is 4.9. Besides, the logD in series [1] is 2. Further, the Papp A→B at 10 µM in series [2] came out at 41 ×10⁻⁶ cm/s.
Consider `CC1=NC(c2cccc(-c3cncc(Cl)c3)c2)(C2CC2)N=C1N` (configuration not stated), for which, in [3], the Kp uu at […] worked out at 0.16. In series [4], the “Drug uptake(free)” value is 9 nmol/L. The concentration at […] in series [5] came to 180 nM; in [8], 1200 nM. The “Cp(f)” value in [6] came to 60 nM. Further, in series [1], the pH-dependent lipophilicity (logD) came out at 2. The same compound registered an apical-to-basolateral permeability (Papp A→B) at 10 µM in [2] of 57 ×10⁻⁶ cm/s.
Take `COc1c(C)cc([C@@]2(c3cccc(-c4cncnc4)c3)N=C(C)C(N)=N2)cc1C`: in series [9], the Kp uu at […] amounted to 0.05. For the same compound, the “Drug uptake(free)” value in series [10] is 19 nmol/L. In addition, the concentration at […] in [11] is 230 nM; in series [13] it was 4500 nM. For the same compound, the “Cp(f)” value in [12] was 490 nM. Also, the pKa in series [7] amounted to 5.2. Moreover, the Kp uu in [14] amounted to 0.16. For the same compound, the logD in series [1] came to 1.8. In [2], the Papp A→B at 10 µM came to 22 ×10⁻⁶ cm/s.
In series [7], `COc1cccc(-c2cccc(C3(C4CCOCC4)N=C(C)C(N)=N3)c2)c1` (configuration not stated) had a pKa of 6. Further, the logD in series [1] was 2.5. This compound also showed a Papp A→B at 10 µM in series [2] of 22 ×10⁻⁶ cm/s.
In series [7], `CC1=NC(C)(c2cccc(-c3cccnc3)c2)N=C1N` (configuration not stated) yielded a pKa of 6.7. This compound returned a logD in series [1] of 0.2. Moreover, the Papp A→B at 10 µM in series [2] is 30 ×10⁻⁶ cm/s.
Regarding `CC1(c2cccc(-c3cccnc3)c2)N=C(N)C(c2ccccc2)=N1` (configuration not stated), in series [7], the pKa came to 5.4. Besides, the logD in series [1] came out at 2.1. Also, in series [2], the Papp A→B at 10 µM stood at 46 ×10⁻⁶ cm/s.
